Laboratory results reported in patent EP4678638A1, “NEW E3 UBIQUITIN LIGASE LIGAND, PROTEIN DEGRADATION AGENT AND USE THEREOF” (priority 2023, dated 2024).

What was measured:
SR = assay: CCK-8 proliferation, SR; format: cell-based, Human; settings: Homo sapiens; Table B6, compounds designed based on the ALK inhibitors; SR cells; read-out: Inhibitory activity (IC50, nM) on tumor cell proliferation, SR
How it was run: (§1)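 CCK-8 viability readout; IC50 from growth-inhibition curve fitting. Cells plated, dosed 24h later with a 10-point series, top 10µM, 5-fold steps. Culture at 37°C, 5% CO2.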

MM.1S = assay: CCK-8 proliferation, MM.1S; format: cell-based; settings: Homo sapiens, MM1.S; Table B6, compounds designed based on the ALK inhibitors; MM.1S cells; read-out: Inhibitory activity (IC50, nM) on tumor cell proliferation, MM.1S
How it was run: as §1

[1] = biological target: T1, human Cereblon WT GST-tagged protein (Homo sapiens, UniProt Q96SW2); assay: CRBN binding, HTRF (CEREBLON BINDING kit); settings: Table II-2, CRBN binding screening, HTRF
T1 construct: purchased CISBIO 64BDCRBNPEH
How it was run: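 After 3 h at room temperature, emission at 665 and 620 nm was measured in a homogeneous time-resolved fluorescence format. Compounds competed with a Thalidomide-Re probe for GST-tagged wild-type human CRBN, which was labelled with a Eu anti-GST antibody.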

ALK = biological target: T2, ALK (Homo sapiens, UniProt Q96SW2+Q9HC35+Q9UM73); assay: Western blot degradation of ALK (H2228 Cell); format: cell-based; settings: Table D5
T2 construct: evaluate the effects of the compounds of the present disclosure on the expression of target proteins in cells; endogenous in cells; host or cells: H2228
Experimental: Conventional Western blot assay was performed to evaluate the effects of the compounds of the present disclosure on the expression of target proteins in cells.
(1) Cell Seeding and Protein Harvesting: The selected cells were processed according to the cell seeding procedure and protein harvesting procedure in Table III-2. Table III-2 Cell Seeding and Protein Harvesting Procedures
(2) To the collected supernatant, 5X SDS sample loading buffer was added, followed by denaturation at 95°C for 5 minutes. The denatured samples were then separated by SDS-PAGE electrophoresis on a polyacrylamide gel. Proteins were transferred to a nitrocellulose membrane (0.45 µm NC membrane), blocked with blocking buffer at room temperature for 1 hour, and subjected to antibody incubation and development procedures according to the antibody manufacturer's instructions (Cell Signaling Technology).
Half-Maximal Degradation Concentration value (the drug concentration required for degrading proteins by 50%, abbreviated as DC50) reads method: comparing the grayscale values of Western blot bands from drug-treated samples with those from blank DMSO-treated controls, and identifying the drug concentration range at which the grayscale value is half that of the DMSO-treated control bands.
DC50 values can be calculated using ImageJ software to measure grayscale values of Western blot bands from drug-treated samples. The concentration-response curve is fitted to estimate the drug concentration corresponding to half the grayscale value.
Target protein remaining (%) refers to the percentage of target protein remaining in hPBMC cells after treatment with protein degrader compounds.
Calculation method for target protein remaining (%): Use ImageJ software to measure grayscale values of Western blot bands from drug (protein degrader)-treated samples. The grayscale value of drug-treated bands is divided by that of internal control protein bands, and the resulting quotient is normalized to obtain the relative percentage of remaining target protein after protein degrader treatment.
Target protein degradation rate (%) = 100% - target protein remaining (%).

H2228 = assay: CCK-8 proliferation, NCI-H2228 (H2228); format: cell-based; settings: Homo sapiens, NCI-H2228; Table B6, compounds designed based on the ALK inhibitors; H2228 cells; read-out: Inhibitory activity (IC50, nM) on tumor cell proliferation, H2228
How it was run: as §1

H1975 = assay: CCK-8 proliferation, NCI-H1975 (H1975); format: cell-based, Human; settings: Homo sapiens, NCI-H1975; Table B6, compounds designed based on the ALK inhibitors; H1975 cells; read-out: Inhibitory activity (IC50, nM) on tumor cell proliferation, H1975
How it was run: as §1

MCF7 = assay: CCK-8 proliferation, MCF7 (MCF-7); format: cell-based; settings: Homo sapiens, MCF7; Table B6, compounds designed based on the ALK inhibitors; MCF-7 cells; read-out: Inhibitory activity (IC50, nM) on tumor cell proliferation, MCF-7
How it was run: as §1

T2 sequence (Q9HC35+Q9UM73 fused): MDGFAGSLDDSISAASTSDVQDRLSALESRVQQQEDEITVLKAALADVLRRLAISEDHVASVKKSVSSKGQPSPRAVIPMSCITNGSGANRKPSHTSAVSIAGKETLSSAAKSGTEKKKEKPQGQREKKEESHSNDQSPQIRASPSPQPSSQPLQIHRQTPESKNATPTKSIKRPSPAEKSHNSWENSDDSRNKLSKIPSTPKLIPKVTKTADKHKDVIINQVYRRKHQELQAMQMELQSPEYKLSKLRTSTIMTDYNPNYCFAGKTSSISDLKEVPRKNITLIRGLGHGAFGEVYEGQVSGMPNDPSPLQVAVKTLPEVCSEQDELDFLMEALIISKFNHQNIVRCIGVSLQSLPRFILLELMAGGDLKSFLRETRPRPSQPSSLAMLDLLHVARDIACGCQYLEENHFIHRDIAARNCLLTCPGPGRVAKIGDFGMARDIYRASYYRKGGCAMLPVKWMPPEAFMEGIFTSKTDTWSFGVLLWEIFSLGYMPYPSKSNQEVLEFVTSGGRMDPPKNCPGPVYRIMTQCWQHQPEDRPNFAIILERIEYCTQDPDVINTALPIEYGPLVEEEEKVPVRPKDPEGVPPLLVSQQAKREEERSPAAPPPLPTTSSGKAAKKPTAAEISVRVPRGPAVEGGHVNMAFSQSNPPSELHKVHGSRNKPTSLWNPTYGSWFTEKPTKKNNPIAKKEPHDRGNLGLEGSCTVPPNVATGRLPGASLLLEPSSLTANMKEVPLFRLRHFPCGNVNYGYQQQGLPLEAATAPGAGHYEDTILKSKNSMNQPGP
T2 sequence (Q96SW2 whole entry): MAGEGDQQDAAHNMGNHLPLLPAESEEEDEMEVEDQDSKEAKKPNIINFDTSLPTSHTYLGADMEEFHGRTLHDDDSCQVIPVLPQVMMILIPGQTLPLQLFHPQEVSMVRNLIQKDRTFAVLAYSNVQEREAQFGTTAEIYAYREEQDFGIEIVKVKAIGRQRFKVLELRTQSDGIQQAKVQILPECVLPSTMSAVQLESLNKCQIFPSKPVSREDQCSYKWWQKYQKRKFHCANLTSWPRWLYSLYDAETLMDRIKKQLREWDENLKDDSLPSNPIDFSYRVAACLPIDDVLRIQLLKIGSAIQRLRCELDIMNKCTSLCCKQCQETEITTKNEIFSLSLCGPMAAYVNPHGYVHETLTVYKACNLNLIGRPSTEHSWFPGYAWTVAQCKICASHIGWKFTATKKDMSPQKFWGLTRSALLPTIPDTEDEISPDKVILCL
T2 sequence (Q16531 whole entry partner): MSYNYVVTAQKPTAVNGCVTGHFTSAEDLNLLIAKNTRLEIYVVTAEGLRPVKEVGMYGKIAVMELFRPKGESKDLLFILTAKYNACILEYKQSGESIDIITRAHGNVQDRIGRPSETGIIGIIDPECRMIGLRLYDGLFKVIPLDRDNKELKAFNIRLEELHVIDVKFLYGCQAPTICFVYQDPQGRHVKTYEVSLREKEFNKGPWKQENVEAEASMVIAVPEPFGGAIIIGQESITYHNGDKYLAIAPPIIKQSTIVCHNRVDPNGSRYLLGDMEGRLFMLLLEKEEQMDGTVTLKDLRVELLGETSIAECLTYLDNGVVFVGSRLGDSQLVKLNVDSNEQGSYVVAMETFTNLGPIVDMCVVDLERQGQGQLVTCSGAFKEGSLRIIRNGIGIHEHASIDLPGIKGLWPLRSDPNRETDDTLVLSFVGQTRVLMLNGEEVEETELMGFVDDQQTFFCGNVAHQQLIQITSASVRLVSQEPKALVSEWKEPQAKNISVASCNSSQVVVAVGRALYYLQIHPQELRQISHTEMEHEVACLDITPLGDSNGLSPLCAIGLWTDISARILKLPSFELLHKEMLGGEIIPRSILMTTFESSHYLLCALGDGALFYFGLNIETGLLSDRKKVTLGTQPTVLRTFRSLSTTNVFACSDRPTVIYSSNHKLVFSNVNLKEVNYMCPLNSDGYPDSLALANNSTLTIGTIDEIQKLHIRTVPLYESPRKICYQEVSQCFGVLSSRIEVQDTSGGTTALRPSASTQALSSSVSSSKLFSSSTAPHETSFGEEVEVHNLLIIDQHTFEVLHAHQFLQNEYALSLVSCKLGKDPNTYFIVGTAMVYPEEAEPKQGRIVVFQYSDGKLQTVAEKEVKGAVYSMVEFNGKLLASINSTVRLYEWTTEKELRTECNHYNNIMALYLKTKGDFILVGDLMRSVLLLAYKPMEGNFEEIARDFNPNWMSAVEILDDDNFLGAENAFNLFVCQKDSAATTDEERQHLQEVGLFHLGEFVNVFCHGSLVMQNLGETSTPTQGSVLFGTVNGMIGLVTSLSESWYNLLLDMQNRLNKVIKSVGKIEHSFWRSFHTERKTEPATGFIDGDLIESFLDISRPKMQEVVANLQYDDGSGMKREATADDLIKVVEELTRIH
T1 sequence (Q96SW2 whole entry): as the sequence (Q96SW2 whole entry) above

| IC50 (MM.1S) | inhibition at 0.5 µM ([1]; at 0.5µM, read-out: Inhibition rate (%) at 0.5µM) | inhibition at 2 µM ([1]; at 2 µM, read-out: Inhibition rate (%) at 2 µM) | IC50 (H2228) | IC50 (H1975) | IC50 (MCF7) | Structure (SMILES) | IC50 (SR) | Degradation of substrate protein ALK (substrate protein remaining %) (ALK) |
| --- | --- | --- | --- | --- | --- | --- | --- | --- |
|  |  |  | 50 to 100 nM | 500 to 1000 nM | 500 to 1000 nM | COc1cc(N2CCC(N3CCN(Cc4cncc(N5CCC(=O)NC5=O)c4)CC3)CC2)ccc1Nc1ncc(Cl)c(Nc2ccccc2P(C)(C)=O)n1 [GT-07610, 1-(5-((4-(1-(4-((5-chloro-4-((2-(dimethylphosphoryl)phenyl)amino)pyrimidin-2-yl)amino)-3-methoxyphenyl)piperidin-4-yl)piperazin-1-yl)methyl)pyridin-3-yl)dihydropyrimidine-2,4(1H,3H)-dione] | 1 to 10 nM | A (A is defined as 0% ≤ substrate protein remaining % ≤ 80%) |
|  |  |  | 100 to 500 nM | 100 to 500 nM | 500 to 1000 nM | COc1cc(N2CCN(Cc3ccc(N4CCC(=O)NC4=O)c(F)c3)CC2)ccc1Nc1ncc(Cl)c(Nc2ccccc2P(C)(C)=O)n1 [GT-07346, 1-(4-((4-(4-((5-chloro-4-((2-(dimethylphosphoryl)phenyl)amino)pyrimidin-2-yl)amino)-3-methoxyphenyl)piperazin-1-yl)methyl)-2-fluorophenyl)dihydropyrimidine-2,4(1H,3H)-dione] | 10 to 50 nM | A (A is defined as 0% ≤ substrate protein remaining % ≤ 80%) |
|  |  |  | 100 to 500 nM | 500 to 1000 nM | 500 to 1000 nM | COc1cc(N2CCC(N(C)Cc3cc(C4CCC(=O)NC4=O)cnc3F)CC2)ccc1Nc1ncc(Cl)c(Nc2ccccc2P(C)(C)=O)n1 (stereo not shown) [GT-07696, 3-(5-(((1-(4-((5-chloro-4-((2-(dimethylphosphoryl)phenyl)amino)pyrimidin-2-yl)amino)-3-methoxyphenyl)piperidin-4-yl)(methyl)amino)methyl)-6-fluoropyridin-3-yl)piperidine-2,6-dione] | 10 to 50 nM | A (A is defined as 0% ≤ substrate protein remaining % ≤ 80%) |
|  |  |  | 50 to 100 nM | 500 to 1000 nM | 100 to 500 nM | COc1cc(N2CCC(N(C)Cc3ccc(N4CCC(=O)NC4=O)cn3)CC2)ccc1Nc1ncc(Cl)c(Nc2ccccc2P(C)(C)=O)n1 [GT-07617, 1-(6-(((1-(4-((5-chloro-4-((2-(dimethylphosphoryl)phenyl)amino)pyrimidin-2-yl)amino)-3-methoxyphenyl)piperidin-4-yl)(methyl)amino)methyl)pyridin-3-yl)dihydropyrimidine-2,4(1H,3H)-dione] | 10 to 50 nM | A (A is defined as 0% ≤ substrate protein remaining % ≤ 80%) |
|  |  |  | 100 to 500 nM | 500 to 1000 nM | 500 to 1000 nM | COc1cc(N2CCC(N3CCN(Cc4cncc(C5CCC(=O)NC5=O)c4)CC3)CC2)ccc1Nc1ncc(Cl)c(Nc2ccccc2P(C)(C)=O)n1 (stereo not shown) [GT-07614, 3-(5-((4-(1-(4-((5-chloro-4-((2-(dimethylphosphoryl)phenyl)amino)pyrimidin-2-yl)amino)-3-methoxyphenyl)piperidin-4-yl)piperazin-1-yl)methyl)pyridin-3-yl)piperidine-2,6-dione] | 1 to 10 nM | A (A is defined as 0% ≤ substrate protein remaining % ≤ 80%) |
|  |  |  | 50 to 100 nM |  | 500 to 1000 nM | CCc1cc2c(cc1N1CCC(N3CCN(Cc4ccc(N5CCC(=O)NC5=O)nc4)CC3)CC1)C(C)(C)c1[nH]c3cc(C#N)ccc3c1C2=O [GT-07312, 8-(4-(4-((6-(2,4-dioxotetrahydropyrimidin-1(2H)-yl)pyridin-3-yl)methyl)piperazin-1-yl)piperidin-1-yl)-9-ethyl-6,6-dimethyl-11-oxo-6,11-dihydro-5H-benzo[b]carbazole-3-carbonitrile] | 1 to 10 nM | A (A is defined as 0% ≤ substrate protein remaining % ≤ 80%) |
|  |  |  | 100 to 500 nM | 500 to 1000 nM | 100 to 500 nM | COc1cc(N2CCC(N(C)Cc3ccc(C4CCC(=O)NC4=O)cn3)CC2)ccc1Nc1ncc(Cl)c(Nc2ccccc2P(C)(C)=O)n1 (stereo not shown) [GT-07698, 3-(6-(((1-(4-((5-chloro-4-((2-(dimethylphosphoryl)phenyl)amino)pyrimidin-2-yl)amino)-3-methoxyphenyl)piperidin-4-yl)(methyl)amino)methyl)pyridin-3-yl)piperidine-2,6-dione] | 10 to 50 nM | A (A is defined as 0% ≤ substrate protein remaining % ≤ 80%) |

More lines, now with the values behind:

| Structure (SMILES) | IC50 (MM.1S) | inhibition at 0.5 µM ([1]; at 0.5µM, read-out: Inhibition rate (%) at 0.5µM) | inhibition at 2 µM ([1]; at 2 µM, read-out: Inhibition rate (%) at 2 µM) | IC50 (H2228) | IC50 (H1975) | IC50 (MCF7) | IC50 (SR) | Degradation of substrate protein ALK (substrate protein remaining %) (ALK) |
| --- | --- | --- | --- | --- | --- | --- | --- | --- |
| CCc1cc2c(cc1N1CCC(N3CCN(Cc4ccc(C5CCC(=O)NC5=O)c(F)c4)CC3)CC1)C(C)(C)c1[nH]c3cc(C#N)ccc3c1C2=O (stereo not shown) [GT-03763, 8-(4-(4-(4-(2,6-dioxopiperidin-3-yl)-3-fluorobenzyl)piperazin-1-yl)piperidin-1-yl)-9-ethyl-6,6-dimethyl-11-oxo-6,11-dihydro-5H-benzo[b]carbazole-3-carbonitrile] | 100 to 500 nM | 40 to 53% | 53 to 60% |  |  |  | 1 to 10 nM | A (A is defined as 0% ≤ substrate protein remaining % ≤ 80%) |
| COc1cc(N2CCC(N(C)Cc3ccc(N4CCC(=O)NC4=O)nc3)CC2)ccc1Nc1ncc(Cl)c(Nc2ccccc2P(C)(C)=O)n1 [GT-07691, 1-(5-(((1-(4-((5-chloro-4-((2-(dimethylphosphoryl)phenyl)amino)pyrimidin-2-yl)amino)-3-methoxyphenyl)piperidin-4-yl)(methyl)amino)methyl)pyridin-2-yl)dihydropyrimidine-2,4(1H,3H)-dione] |  |  |  | 50 to 100 nM | 100 to 500 nM | 100 to 500 nM | 1 to 10 nM | A (A is defined as 0% ≤ substrate protein remaining % ≤ 80%) |
| COc1cc(N2CCN(Cc3cccc(NC4CCC(=O)NC4=O)c3)CC2)ccc1Nc1ncc(Cl)c(Nc2ccccc2P(C)(C)=O)n1 (stereo not shown) [GT-07351, 3-((3-((4-(4-((5-chloro-4-((2-(dimethylphosphoryl)phenyl)amino)pyrimidin-2-yl)amino)-3-methoxyphenyl)piperazin-1-yl)methyl)phenyl)amino)pip eridine-2,6-dione] |  |  |  | 100 to 500 nM | 500 to 1000 nM | 500 to 1000 nM | 10 to 50 nM | A (A is defined as 0% ≤ substrate protein remaining % ≤ 80%) |
| COc1cc(N2CCN(Cc3ccc(N4CCC(=O)NC4=O)cc3)CC2)ccc1Nc1ncc(Cl)c(Nc2ccccc2P(C)(C)=O)n1 [GT-07345, 1-(4-((4-(4-((5-chloro-4-((2-(dimethylphosphoryl)phenyl)amino)pyrimidin-2-yl)amino)-3-methoxyphenyl)piperazin-1-yl)methyl)phenyl)dihydropyr imidine-2,4(1H,3H)-dione] |  |  |  | 100 to 500 nM | 500 to 1000 nM | 500 to 1000 nM | 10 to 50 nM | A (A is defined as 0% ≤ substrate protein remaining % ≤ 80%) |
| Cc1cc(Nc2ncc(Cl)c(Nc3ccccc3S(=O)(=O)C(C)C)n2)c(OC(C)C)cc1C1CCN(Cc2ccnc(N3CCC(=O)NC3=O)c2)CC1 [GT-07596, 1-(4-((4-(4-((5-chloro-4-((2-(isopropylsulfonyl)phenyl)amino)pyrimidin-2-yl)amino)-5-isopropoxy-2-methylphenyl)piperidin-1-yl)methyl)pyridin-2-yl)dihydropyrimidine-2,4(1H,3H)-dione] |  |  |  | 100 to 500 nM |  | 100 to 500 nM | 10 to 50 nM | A (A is defined as 0% ≤ substrate protein remaining % ≤ 80%) |
